Where no end group is shown, it is not given here. [ ]: non-standard residue; d: D form. Nva = CCC[C@H](N)C(=O)O

In assay [1] the test system is D2.mdx mice. The experiment in a line: Mitochondrial respiration in permeabilized muscle fibre bundles. Type of assay: in vivo, mouse. As to conditions: quadriceps and diaphragm; multiple substrate conditions; LD and HD. The procedure:
D2.mdx mice were treated with ALY688 at two different dosages; high dose (HD; 15 mg/kg body weight/day) or low dose (LD; 3 mg/kg body weight/day) dissolved in saline. A separate group of mice were treated with saline alone (VEH, vehicle). Treatment was provided via subscapular subcutaneous injections from 7 days of age to 28-30 days. […] At 28-30 days of age, mice were anaesthetized with isoflurane vaporized in medical air (21% oxygen) at a 2 L/min flow rate. Due to tissue limitations in limb muscle, certain measures were performed separately in tibialis anterior and quadriceps across several phases of breeding. Following the treatment protocol, in situ quadriceps force assessments were then performed in one limb followed by removal of the quadriceps from the other limb for mitochondrial assessments, diaphragm for in vitro force assessments and finally other tissues for further processing as described below. […]
High resolution oxygen consumption (an index of mitochondrial respiration) was performed in 2 mL of MiRO5 supplemented with (creatine-dependent) or without (creatine independent) 20 mM creatine to saturate mitochondrial creatine kinase activity. O2 consumption was measured using the Oroboros Oxygraph-2K (Oroboros Instruments, Corp., Innsbruck, Austria) while stirring at 37° C. in the presence of 5 μM blebbistatin to prevent muscle fibre contraction by rigor in response to ADP. […]

For assay [2], the system named is D2.mdx mice. The experiment in a line: Hippocampal cytokine mRNA by quantitative PCR. The class given is in vivo, mouse. The following applies: 15 mg/kg daily. Here is the method: Male D2.mdx mice originated from a colony maintained at York University (Toronto, Canada) and sourced from Jackson Laboratories (Stock Number 013141, Bar Harbor, United States). Mice were treated daily from days 7 to 28 of age with ALY688 at 15 mg/kg b.w. (D2.mdx-ALY688) or saline control (D2.mdx-VEH). This age was chosen given it captures an early stage of disease progression in cardiac and skeletal muscle. Mice were sacrificed 20-24 hr after the last dose. Breeding of wildtype mice was unsuccessful. […]
Total RNA was isolated from hippocampus using the Aurum Total RNA Mini Kit (Bio-Rad; Mississauga, ON, Canada) according to manufacturer's instructions, and reverse transcribed into cDNA by M-MLV reverse transcriptase and oligo (dT) primers (Qiagen). cDNA was then amplified in a CFX384 Touch Real-Time PCR Detection Systems (Bio-Rad) with a SYBR Green master mix and specific primers. Gene expression was normalized to a Rplp0 control and relative differences were determined using the ΔΔCt method (Livak, K. J., & Schmittgen, T. D. (2001). Analysis of relative gene expression data using real-time quantitative PCR and the 2(-Delta Delta C(T)) Method. Methods, 25 (4), 402-408. doi: 10.1006/meth.2001.1262), normalized to D2A expression. […]

In the case of [dN]IP[Nva]LY[dS]FA[dS]-NH2 [ALY688], the ADP-stimulated respiration result in the assay on D2.mdx mice [1] was “generally no effect of either dose”. Moreover, the “hippocampal mRNA of IL-6, TNF-α or IL-10” value with D2.mdx mice [2] was “No significant changes”.

The record behind these values is patent US20240382564A1, “Methods and Compositions for Treating Muscular Dystrophy and Memory Impairment” (Allysta Pharmaceuticals, Inc., priority 2023, published 2024).
